Series [1] relates to normal skin fibroblasts (HFF-1). Also noted: method as in PMID 29271659. Particulars: toxicity to normal cells; read-out: IC50 normal cells of analog without linker; cited from earlier work.
Series [2] concerns breast adenocarcinoma (MCF7) cells. Description: Antiproliferative MTT assay, MCF-7. Particulars: Homo sapiens, MCF7; 72 h incubation, MTT; mean ± SD. It is filed as cell-based, human. Put shortly: (§1)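 MTT read-out after 72 h exposure to compounds (0.01–100 µM, fivefold/tenfold dilutions in growth medium). Seeding 3000 cells/well for carcinoma lines, 5000 for HFF-1. IC50 by linear regression; 5-FU reference.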

For series [3], the system named is colorectal carcinoma (HT-29) cells. The series is described as follows: Antiproliferative MTT assay, HT-29. It is filed as cell-based, human. In short, it runs like this:
as §1

Series [4] deals with hepatocellular carcinoma (HepG2) cells. The series is described as follows: Antiproliferative MTT assay, HepG2. It counts as cell-based, human. Particulars: SI = [IC50 HFF]/[IC50 HepG2]. Put shortly: as §1
For series [5], the system named is normal skin fibroblasts (HFF-1). Description: Cytotoxicity MTT assay, normal skin fibroblasts. It is filed as cell-based, human. Particulars: Homo sapiens, HFF-1, 72 h, 72 h incubation, mean ± SD. Put shortly: as §1
Series [6] relates to MCF-7, CFPAC-1, HT-29, HepG2 tumor cell lines and HFF-1 fibroblasts. Description: Antiproliferative activity, whole cell line panel. It is filed as cell-based, human. The note with it: tested cell lines. Here is the method:
The human ATCC tumor cell lines breast adenocarcinoma (MCF7), colorectal carcinoma (HT-29), pancreatic ductal adenocarcinoma (CFPAC-1), hepatocellular carcinoma (HepG2), and normal skin fibroblasts (HFF) derived from ATCC (American Type Culture Collection) were cultured in Dulbecco’s Modified Eagle Medium (DMEM) or Minimum Essential Medium (MEM) supplemented with 10% fetal bovine serum (FBS), 2 mM L-glutamine, 100 U/mL penicillin, and 100 µg/mL streptomycin (Lonza, Basel, Switzerland) in a humidified atmosphere with 5% CO2 at 37 °C. For the experiment, carcinoma cell lines and normal human cell lines were seeded in 96-well microtiter plates at a density of 3000 cells per well and 5000 cells per well, respectively, depending on the doubling time of the specific cell line. The test substances were then added at fivefold, tenfold dilutions (0.01 to 100 µM), freshly prepared in the growth medium on the day of testing, and incubated for a further 72 h. After 72 h of incubation, the growth rate of the cells was determined using the MTT assay according to the manufacturer’s guidelines. […] The IC50 values were calculated from the dose–response curves using linear regression analysis. The experiment was performed in tetraplicates in two individual experiments.
Newly synthesized compounds were evaluated for their cytotoxic activity in vitro against four human cancer cell lines, including human breast adenocarcinoma (MCF-7), ductal pancreatic adenocarcinoma (CFPAC-1), colorectal carcinoma (HT-29), and hepatocellular carcinoma (HepG2), as well as on non-cancerous skin fibroblasts (HFF-1), to check for non-specific toxicity. Furthermore, 5-Fluorouracil (5-FU) was used as a reference drug. The results are expressed as 50% inhibitory concentration (IC50) values and are listed in Table 2, Table 3, Table 4 and Table 5.

Series [7] concerns MDCKII-MDR1 cells (P-glycoprotein). The series is described as follows: MDCKII-MDR1 permeability assay. It counts as in vitro ADME, canine cells with over-expressed human MDR1 gene. Particulars: permeability class. Put shortly: (§2)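 Bidirectional transport across MDCKII cells overexpressing human MDR1, compounds 10 µM (1% DMSO) for 60 min at 37 °C, with and without 2 µM elacridar. Monolayer integrity checked by Lucifer yellow; compound concentrations quantified by LC-MS/MS (MRM).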

Series [8] deals with P-glycoprotein (human MDR1). Description: MDCKII-MDR1 permeability assay. It is filed as in vitro ADME, canine cells with over-expressed human MDR1 gene. The note with it: dog, MDCK-MDR1. In short, it runs like this:
as §2

A short description of series [9]: Hydrolytic stability in aqueous buffer (UV/Vis). It is filed as physicochemical. Particulars: phosphate buffer/DMSO 99:1, pH 7.4, 1 × 10⁻⁴ mol dm⁻³, UV/Vis spectra over 24 h. The text has this: Solvents and chemicals, including starting purines and purine bioisosters 1–5, as well as para-substituted 2-phenyloxiranes 11–15 and phenacyl bromide 21–25, were purchased from Sigma-Aldrich (St. Louis, MO, USA), Alfa Aesar (Haverhill, MA, USA), and Fisher Scientific International (Pittsburgh, PA, USA). The progress of all reactions was monitored by thin layer chromatography on pre-coated Merck (Darmstadt, Germany) silica gel plates 60F254. The synthesized compounds were purified via column chromatography using Fluka (Buchs, Switzerland) silica gel (0.063−0.2 mm) and the appropriate solvent. All NMR spectra were recorded using a Bruker 300, 400, and 600 MHz NMR spectrometer (Bruker Biospin, Rheinstetten, Germany) in deuterated DMSO solutions, with TMS as the internal standard. The melting points of all newly synthesized compounds were determined using a Koffler (Reichert, Vienna) hot stage microscope. The ^1H (δ/ppm) and ^13C NMR (δ/ppm) spectra of compounds 26a,b–49a,b can be found in the Supporting Information (Figures S1–S48). The purity of all newly synthesized compounds was determined by elemental analysis and the elemental analysis results are within 0.5% of the theoretical values. The UV/Vis absorption spectra of compounds 40a, 45a, and 49b were measured at a concentration of 1 × 10⁻⁴ mol dm⁻³ in phosphate buffer and DMSO (99:1, v/v) at pH 7.4 using a Varian Cary 50 spectrophotometer in double-beam mode at 25 °C.
Selected 6-chloropurine (40a), 4-chloropyrrolo[2,3-d]pyrimidine (45a), and 4-chloroimidazo[4,5-c]pyridine (49b) with significant antiproliferative activity were examined for hydrolytic stability in an aqueous buffer solution.
2. UV/Vis absorption spectra of selected compounds
Figure S49. UV/Vis absorption spectra of compounds 40a (a), 45a (b), and 49b (c) recorded in phosphate buffer with 1% DMSO (99:1, v/v) at pH 7.4 (c = 1 × 10⁻⁴ mol dm⁻³). Spectra were measured immediately after sample preparation and after 24 hours to evaluate spectral stability over time.
(1 picture or pasted object on this page, not shown here)

Read-outs that look alike come from different tables or passages of the source.

For `FC(F)(F)c1ccc(-n2cc(Cn3cnc4c(Cl)ncnc43)nn2)cc1`, the half-inhibitory concentration (IC50) in [1] is 0.75 µM.
Regarding `OCC(c1ccc(C(F)(F)F)cc1)n1cc(Cn2cnc3c(Cl)ncnc32)nn1` (stereo not drawn) [Compound 40a, 6-Chloro-9-((1-(2-hydroxy-1-(4-(trifluoromethyl)phenyl)ethyl)-1H-1,2,3-triazol-4-yl)methyl)-9H-purine], the IC50 in series [2] is 19 ± 4.3 µM; in series [3] (Homo sapiens, HT-29, 72 h, 72 h incubation, MTT, mean ± SD), 0.69 ± 0.01 µM; in series [5] it was 18 ± 0.6 µM. Further, the “SI (HT-29)” value in series [3] (SI = [IC50 HFF]/[IC50 HT-29]) is recorded as 26.1. For the same compound, the “SI (HepG2)” value in series [4] is recorded as 28.1. Besides, in [6], the “antiproliferative activity (in words)” value was “submicromolar antiproliferative activity”. Also, in series [7], the Permeability result was “MODERATE”. Moreover, the apparent permeability from apical to basolateral (Papp A→B) at 60 min, 10 µM in series [8] (10 µM, 60 min, 37 °C) came to 2.1 ×10⁻⁶ cm/s. In addition, in series [8] (10 µM, 60 min, 37 °C), the Papp B→A at 60 min, 10 µM is 60.6 ×10⁻⁶ cm/s. In series [8] (<2 no efflux, >2 active efflux), the efflux ratio at 60 min, 10 µM was found to be 29.5. Moreover, the hydrolytic stability entry in series [9] is given as “hydrolytically stable”.

Source of the values: PMC11940194, “Synthesis, Antiproliferative Activity, and ADME Profiling of Novel Racemic and Optically Pure Aryl-Substituted Purines and Purine Bioisosteres” (Biomolecules, 2025).
